Measured values reported in patent US4820695A, “C-20-dihydro-deoxy-(cyclic amino)-derivatives of macrolide antibiotics” (priority 1987, dated 1989).
Values after ≈ are worked out from the molar mass of the structure shown. Like-named read-outs stand apart in the source and are kept apart here.

What was measured:
Escherichia coli EC14 = experiment: MIC, standard agar-dilution assay (Table IX); assay type: cell-based; details: read-out: MIC
[1] = tested on: Streptococcus Group D 2041; experiment: MIC, standard agar-dilution assay (Table IX); assay type: cell-based; details: GROUPD2041, read-out: MIC
[2] = tested on: Staphylococcus aureus S13E; experiment: MIC, standard agar-dilution assay (Table IX); assay type: cell-based; details: Staphylococcus aureus, S13E
Escherichia coli N10 = experiment: MIC, standard agar-dilution assay (Table IX); assay type: cell-based; details: read-out: MIC
Klebsiella X26 = experiment: MIC, standard agar-dilution assay (Table IX); assay type: cell-based; details: read-out: MIC
[3] = tested on: Streptococcus pyogenes C203; experiment: MIC, standard agar-dilution assay (Table IX); assay type: cell-based; details: read-out: MIC
[4] = tested on: Haemophilus influenzae C.L.; experiment: MIC, standard agar-dilution assay (Table IX); assay type: cell-based; details: Ampicillin-sensitive strain, read-out: MIC
[5] = tested on: Haemophilus influenzae 76; experiment: MIC, standard agar-dilution assay (Table IX); assay type: cell-based; details: Haemophilus influenzae 76, Ampicillin-resistant strain, read-out: MIC
[6] = tested on: Staphylococcus epidermidis 222; experiment: MIC, standard agar-dilution assay (Table IX); assay type: cell-based; details: read-out: MIC
[7] = tested on: Staphylococcus aureus X400; experiment: MIC, standard agar-dilution assay (Table IX); assay type: cell-based; details: Staphylococcus aureus X400, Methicillin-resistant strain, read-out: MIC
[8] = tested on: Streptococcus Group D X66; experiment: MIC, standard agar-dilution assay (Table IX); assay type: cell-based; details: read-out: MIC
Escherichia coli TEM = experiment: MIC, standard agar-dilution assay (Table IX); assay type: cell-based; details: read-out: MIC
[9] = tested on: Streptococcus pneumoniae Park I; experiment: MIC, standard agar-dilution assay (Table IX); assay type: cell-based; details: Streptococcus pneumoniae Park I; agar-dilution; read-out: MIC
Mycoplasma synoviae 40A = experiment: MIC, broth-dilution microtiter test (Table X); assay type: cell-based; details: Mycoplasmopsis synoviae, read-out: MIC
Excerpt: (§1) The MIC's in Table X were obtained using conventional broth-dilution microtiter tests.

[10] = tested on: Pasteurella multocida 60A; experiment: MIC, broth-dilution microtiter test (Table X); assay type: cell-based; details: Avian isolate, read-out: MIC
Excerpt: as §1

Mycoplasma hyorhinis 29E = experiment: MIC, broth-dilution microtiter test (Table X); assay type: cell-based; details: read-out: MIC
Excerpt: as §1

[11] = tested on: Mycoplasma hyopneumoniae S5972; experiment: MIC, broth-dilution microtiter test (Table X); assay type: cell-based; details: Mesomycoplasma hyopneumoniae, read-out: MIC
Excerpt: as §1

Staphylococcus aureus = experiment: MIC, broth-dilution microtiter test (Table X); assay type: cell-based; details: read-out: MIC
Excerpt: as §1

[12] = tested on: Mycoplasma gallisepticum 29C; experiment: MIC, broth-dilution microtiter test (Table X); assay type: cell-based; details: Mycoplasmoides gallisepticum, read-out: MIC
Excerpt: as §1

[13] = tested on: Pasteurella hemolytica 22C; experiment: MIC, broth-dilution microtiter test (Table X); assay type: cell-based; details: read-out: MIC
Excerpt: as §1

Streptococcus sp. 19F = experiment: MIC, broth-dilution microtiter test (Table X); assay type: cell-based; details: read-out: MIC
Excerpt: as §1

[14] = tested on: Pasteurella multocida 17E; experiment: MIC, broth-dilution microtiter test (Table X); assay type: cell-based; details: Bovine isolate, read-out: MIC
Excerpt: as §1

[15] = tested on: Staphylococcus epidermidis EPI1; experiment: MIC, standard agar-dilution assay (Table IX); assay type: cell-based; details: Staphylococcus epidermidis EPI1; agar-dilution; read-out: MIC
Staphyloccus aureus X1.1 = experiment: MIC, standard agar-dilution assay (Table IX); assay type: cell-based, Staphylococcus aureus; details: Staphylococcus aureus, read-out: MIC
[16] = Titratable groups in 66% aqueous DMF (Tables XIV-XVI); assay type: physicochemical
Excerpt: ^c Run in 66% aqueous DMF
^d Run in 66% aqueous DMF

[17] = tested on: Staphylococcus aureus V41; experiment: MIC, standard agar-dilution assay (Table IX); assay type: cell-based; details: Staphylococcus aureus V41, Penicillin-resistant strain, read-out: MIC
[18] = tested on: Streptococcus pyogenes C203; experiment: ED50 in mice experimentally infected with S. pyogenes C203 (Table XI); assay type: in vivo; details: Streptococcus pyogenes, doses given 1 and 4 hours postinfection, read-out: ED50
Protocol: The C-20 modified derivatives of this invention have shown in vivo antimicrobial activity against experimentally-induced infections in laboratory animals. When two doses of test compound were administered to mice experimentally infected with S. pyogenes C203, the activity observed was measured as an ED50 value [effective dose in mg/kg to protect 50% of the test animals: see Warren Wick, et al., J. Bacteriol. 81, 233-235 (1961)].
^a mg/kg × 2; doses given 1 and 4 hours postinfection

[19] = Titratable groups (first value)

Row | SMILES | MIC (Escherichia coli EC14) [µg/mL] | MIC [1] [µg/mL] | MIC [2] [µg/mL] | MIC (Escherichia coli N10) [µg/mL] | MIC (Klebsiella X26) [µg/mL] | MIC [3] [µg/mL] | MIC [4] [µg/mL] | MIC [5] [µg/mL] | MIC [6] [µg/mL] | MIC [7] [µg/mL] | MIC [8] [µg/mL] | MIC (Escherichia coli TEM) [µg/mL] | MIC [9] [µg/mL] | MIC (Mycoplasma synoviae 40A) [µg/mL] | MIC [10] [µg/mL] | MIC (Mycoplasma hyorhinis 29E) [µg/mL] | MIC [11] [µg/mL] | MIC (Staphylococcus aureus) [µg/mL] | MIC [12] [µg/mL] | MIC [13] [µg/mL] | also measured
1 | CCC1OC(=O)CC(O)C(C)C(OC2OC(C)C(O)C(N(C)C)C2O)C(CCN2CCC(N3CCCCC3)CC2)CC(C)C(=O)C=CC(C)=CC1COC1OC(C)C(O)C(OC)C1OC (stereo not drawn) [Compound D13, 20-DH-DO-20-[(4-piperidino)piperidin-1-yl]desmycosin] | > 128 | 2 (≈ 2.16 µM) | 1 (≈ 1.08 µM) | > 128 | 16 (≈ 17.3 µM) | 2 (≈ 2.16 µM) | 16 (≈ 17.3 µM) | 8 (≈ 8.66 µM) | 0.25 (≈ 0.27 µM) | 1 (≈ 1.08 µM) | 2 (≈ 2.16 µM) | > 128 | 2 (≈ 2.16 µM) | 1.56 (≈ 1.69 µM) | 12.5 (≈ 13.5 µM) | 50 (≈ 54.1 µM) | 3.12 (≈ 3.38 µM) | 3.12 (≈ 3.38 µM) | 6.25 (≈ 6.76 µM) | 12.5 (≈ 13.5 µM) | MIC (Streptococcus sp. 19F): 6.25 µg/mL (≈ 6.76 µM); MIC [14]: 12.5 µg/mL (≈ 13.5 µM); MIC [15]: 1 µg/mL (≈ 1.08 µM); MIC (Staphyloccus aureus X1.1): 0.5 µg/mL (≈ 0.541 µM); pKa ([16]; Titratable groups): 9.2; pKa [16, 19]: 6; MIC [17]: 1 µg/mL (≈ 1.08 µM)
2 | CCC1OC(=O)CC(O)C(C)C(OC2OC(C)C(O)C(N(C)C)C2O)C(CCN2CCCCCC2)CC(C)C(=O)C=CC(C)=CC1COC1OC(C)C(O)C(O)C1OC (stereo not drawn) [Compound L4, 20-DH-DO-20-(hexahydroazepin-1-yl)lactenocin] | > 128 | 16 (≈ 19 µM) | 2 (≈ 2.38 µM) | > 128 | 16 (≈ 19 µM) | 1 (≈ 1.19 µM) | 16 (≈ 19 µM) | 16 (≈ 19 µM) | 1 (≈ 1.19 µM) | 2 (≈ 2.38 µM) | 32 (≈ 38 µM) | > 128 | 8 (≈ 9.51 µM) | 1.56 (≈ 1.85 µM) | 12.5 (≈ 14.9 µM) | 50 (≈ 59.4 µM) | 1.56 (≈ 1.85 µM) | 6.25 (≈ 7.43 µM) | 12.5 (≈ 14.9 µM) | 25 (≈ 29.7 µM) | MIC (Streptococcus sp. 19F): 6.25 µg/mL (≈ 7.43 µM); MIC [14]: 12.5 µg/mL (≈ 14.9 µM); MIC [15]: 2 µg/mL (≈ 2.38 µM); MIC (Staphyloccus aureus X1.1): 2 µg/mL (≈ 2.38 µM); pKa ([16]; Titratable groups): 9.7; pKa [16, 19]: 8; MIC [17]: 2 µg/mL (≈ 2.38 µM)
3 | CCC1OC(=O)CC(O)C(C)C(OC2OC(C)CC(N(C)C)C2O)C(CCN2CCCCCC2)CC(C)C(=O)C=CC(C)=CC1COC1OC(C)C(O)C(OC)C1OC (stereo not drawn) [Compound D5a, 20-DH-DO-20-(Hexahydroazepin-1-yl)-4'-deoxydesmycosin] | 128 (≈ 153 µM) | 2 (≈ 2.38 µM) | 0.5 (≈ 0.596 µM) | 64 (≈ 76.3 µM) | 8 (≈ 9.53 µM) | 0.25 (≈ 0.298 µM) | 8 (≈ 9.53 µM) | 8 (≈ 9.53 µM) | 0.25 (≈ 0.298 µM) | 1 (≈ 1.19 µM) | 2 (≈ 2.38 µM) | 8 (≈ 9.53 µM) | 0.25 (≈ 0.298 µM) | 0.195 (≈ 0.232 µM) | 3.12 (≈ 3.72 µM) | 3.12 (≈ 3.72 µM) | 0.195 (≈ 0.232 µM) | 0.39 (≈ 0.465 µM) | 0.78 (≈ 0.93 µM) | 3.12 (≈ 3.72 µM) | MIC (Streptococcus sp. 19F): 0.78 µg/mL (≈ 0.93 µM); MIC [14]: 6.25 µg/mL (≈ 7.45 µM); MIC [15]: 0.5 µg/mL (≈ 0.596 µM); MIC (Staphyloccus aureus X1.1): 0.5 µg/mL (≈ 0.596 µM); ED50 ([18]; C203, Oral): 34 mg/kg; ED50 ([18]; C203, sc, Subcutaneous): 1.5 mg/kg; MIC [17]: 0.5 µg/mL (≈ 0.596 µM)
4 | CCC1OC(=O)CC(O)C(C)C(OC2OC(C)C(OC3CC(C)(O)C(O)C(C)O3)C(N(C)C)C2O)C(CCN2CCCCCCC2)CC(C)C(=O)C=CC(C)=CC1COC1OC(C)C(O)C(O)C1OC (stereo not drawn) [Compound M4, 20-DH-DO-20-(octahydroazocin-1-yl)macrocin] | > 128 | > 128 | 4 (≈ 4 µM) | > 128 | > 128 | 2 (≈ 2 µM) | 128 (≈ 128 µM) | 128 (≈ 128 µM) | 2 (≈ 2 µM) | 8 (≈ 8.01 µM) | > 128 | > 128 | 32 (≈ 32 µM) | 6.25 (≈ 6.25 µM) | > 50 | > 50 | 6.25 (≈ 6.25 µM) | 12.5 (≈ 12.5 µM) | 3.12 (≈ 3.12 µM) | > 50 | MIC (Streptococcus sp. 19F): 12.5 µg/mL (≈ 12.5 µM); MIC [14]: > 50 µg/mL; MIC [15]: 4 µg/mL (≈ 4 µM); MIC (Staphyloccus aureus X1.1): 4 µg/mL (≈ 4 µM); pKa ([16]; 66% aqueous DMF, read-out: Titratable groups): 9.25; pKa ([16]; 66% aqueous DMF, read-out: Titratable groups (first value)): 6.9; MIC [17]: 4 µg/mL (≈ 4 µM)
